Results reported in ChEMBL document CHEMBL1687884, “Mirabamides E-H, HIV-inhibitory depsipeptides from the sponge Stelletta clavosa” (J Nat Prod, 2011).
pIC50: −log10 of the molar value. Numbered stars: 1 amine (or outer) side, 2 acyl side, 3 side chain; on linkers, the order of the positions; unused ones are H or OH. Bridge positions count the residues as written; N and C are the ends. Square brackets hold non-standard residues; d marks the D form. Peptide text beside a SMILES is read from it. * marks the point of attachment. dLeu(3R-OH) = CC(C)[C@@H](O[*:3])[C@@H](N[*:1])C(=O)[*:2]; Gln(3S,4R-Me2) = C[C@H]([C@H](N)C(=O)O)[C@@H](C)C(N)=O; dTyr(βR-OMe) = CO[C@H](c1ccc(O)cc1)[C@@H](N)C(=O)O; Pip(4S-Cl) = O=C(O)[C@@H]1C[C@@H](Cl)CCN1; X1 = CCC(C)/C=C(C)/C=C\C(O)C(C)(O)C(=O)*; Abu(3R-NH2) = C[C@@H](N)[C@H](N)C(=O)O; NMeT = CN[C@H](C(=O)O)[C@@H](C)O

Tested on: Human immunodeficiency virus 1
Experiment: Inhibition of HIV1 isolate YU2 infected in human TZM-bl cells expressing CD4 and CCR5 assessed as assessed inhibition of viral entry after 24 hrs by luciferase reporter assay
Type: functional, organism-based
Conditions: Human immunodeficiency virus 1, isolate YU2, TZM-bl

## CCC(C)/C=C(C)/C=C\C(O)C(C)(O)C(=O)NCC(=O)N[C@H](C(=O)N[C@H](C(=O)N[C@H](C(=O)N[C@H]1C(=O)N[C@H](COC)C(=O)NCC(=O)N[C@@H](C)C(=O)N(C)[C@@H]([C@@H](C)O)C(=O)N[C@H]([C@H](OC)c2ccc(O)cc2)C(=O)N2CC[C@H](Cl)C[C@H]2C(=O)O[C@@H]1C(C)C)[C@@H](C)[C@@H](C)C(N)=O)[C@@H](C)N)[C@@H](C)O (stereo partly drawn) [MIRABAMIDE C] (X1-GT[Abu(3R-NH2)][Gln(3S,4R-Me2)][dLeu(3R-OH)][dS](Me)GA[NMeT][dTyr(βR-OMe)][Pip(4S-Cl)]; ester 5-C)
  pIC50: 6.91
